# Measured values from ChEMBL document CHEMBL2401653, “Synthesis, structure-property relationships and pharmacokinetic evaluation of ethyl 6-aminonicotinate sulfonylureas as antagonists of the P2Y₁₂ receptor” (Eur J Med Chem, 2013).
# Key:
# [1] = Stability of the compound in MeCN assessed as compound remaining at room temperature; assay type: physicochemical
# Liver microsomes [2] = assay: Metabolic stability in rat liver microsomes at 1 umol/L by LC/MS analysis in absence of NADPH; assay type: ADME, Microsome; conditions: 1 µM
# Liver microsomes [3] = assay: Metabolic stability in human liver microsomes at 1 umol/L by LC/MS analysis in absence of NADPH; assay type: ADME, Microsome; conditions: 1 µM
# Liver microsomes [4] = assay: Intrinsic clearance in human liver microsomes at 1 umol/L by LC/MS analysis in presence of NADPH; assay type: ADME, Microsome; conditions: 1 µM
# Liver microsomes [5] = assay: Intrinsic clearance in rat liver microsomes at 1 umol/L by LC/MS analysis in presence of NADPH; assay type: ADME, Microsome; conditions: 1 µM
# [6] = Apparent Permeability across apical to basolateral side in human Caco2 cells at 1 to 10 uM measured at 30 to 90 mins by LC/MS analysis; assay type: ADME, cell-based; conditions: Caco-2
# P2Y purinoceptor 12 [7] = molecular target: T1, P2Y purinoceptor 12 (Homo sapiens, UniProt Q9H244)
# T1 sequence (Q9H244 whole entry): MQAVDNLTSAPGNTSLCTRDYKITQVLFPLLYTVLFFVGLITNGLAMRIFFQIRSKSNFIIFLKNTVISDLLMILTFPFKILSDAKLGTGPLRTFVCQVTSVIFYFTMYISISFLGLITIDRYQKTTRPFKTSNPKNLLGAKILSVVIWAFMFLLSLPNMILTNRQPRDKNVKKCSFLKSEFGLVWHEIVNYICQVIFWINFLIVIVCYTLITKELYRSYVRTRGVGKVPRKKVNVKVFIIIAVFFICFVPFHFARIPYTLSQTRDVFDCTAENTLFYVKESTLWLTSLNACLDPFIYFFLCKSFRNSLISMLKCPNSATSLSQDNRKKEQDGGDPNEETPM
# P2Y purinoceptor 12 [8] = molecular target: T1, P2Y purinoceptor 12; remark: listed apart in the source
# Description: Displacement of [125I]-AZ11931285 from P2Y12 receptor (unknown origin) after 1 hr by scintillation counting analysis
# physchem [9] = conditions: HBSS buffer, pH 6.8
# Description: Kinetic solubility in HBSS buffer at pH 6.8 after 16 hrs by LC-UV/MS analysis
# physchem [10] = conditions: HBSS buffer, pH 7.4
# Description: Kinetic solubility in HBSS buffer at pH 7.4 after 16 hrs by LC-UV/MS analysis
# [11] = Aqueous solubility of the compound; assay type: physicochemical; conditions: buffer
# [12] = 1-octanol-phosphate buffer distribution coefficient, log D of the compound at pH 7.4 after 2 days by shake flask method; assay type: physicochemical
# [13] = Stability of the compound in MeCN assessed as compound remaining at 5 degC after 4 months; assay type: physicochemical; conditions: read-out: Stability
# [14] = Stability of the compound in EtOH at room temperature after 21 days by LC/MS analysis; assay type: physicochemical; conditions: 504 h
# [15] = Stability of the compound in MeCN at room temperature after 21 days by LC/MS analysis; assay type: physicochemical; conditions: 504 h
# [16] = Half life in po dosed rat; assay type: ADME, organism-based; conditions: in vivo
# [17] = Half life in iv dosed rat; assay type: ADME, organism-based; conditions: in vivo
# [18] = Oral bioavailability in rat; assay type: ADME, organism-based; conditions: in vivo
# [19] = Clearance in iv dosed rat; assay type: ADME, organism-based; conditions: in vivo
# Plasma = assay: Metabolic stability in rat plasma by HRMS analysis; assay type: ADME, cell-free
# [20] = Fraction unbound in human plasma; assay type: ADME, cell-free
SMILES,Stability [1],Stability (Liver microsomes [2]),Stability (Liver microsomes [3]),Intrinsic clearance (CLint) (Liver microsomes [4]),Intrinsic clearance (Liver microsomes [5]),Papp A→B at up to 10 µM [6],IC50 (P2Y purinoceptor 12 [7]),IC50 (P2Y purinoceptor 12 [8]),logD at 48 h [12],other results
CCOC(=O)c1cc(C#N)c(N2CC(NC(=O)NS(=O)(=O)c3ccc(Cl)s3)C2)nc1C,Stable,,,,> 104 µL/min/mg,0.11 ×10⁻⁶ cm/s,,,0.8,solubility [11]: 83 µM
CCOC(=O)c1cc(C#N)c(N2CCN(C(=O)Nc3ccccc3)CC2)nc1C(F)(F)F,Stable,,,,,,,,5,solubility [11]: < 0.1 µM
CCOC(=O)c1cc(C#N)c(N2CCN(C(=O)NCCc3cccs3)CC2)nc1C(F)(F)F,Stable,,,,,,510 nM,1300 nM,5,solubility kinetic at 16 h (physchem [9]): 15 µM
CCOC(=O)c1cnc(N2CCC(NC(=O)NS(=O)(=O)c3ccccc3)CC2)c(Cl)c1,Stable,,,,,,3200 nM,4800 nM,1.5,Stability [14]: Unstable; Stability [15]: Stable
CCOC(=O)c1cnc(N2CCN(C(=O)Nc3ccccc3)CC2CCC(=O)O)c(Cl)c1 (racemic),Stable,,,,,,2200 nM,680 nM,,solubility kinetic at 16 h (physchem [9]): 96 µM
CCOC(=O)c1cnc(N2CCN(C(=O)NS(=O)(=O)c3ccc(Cl)cc3)CC2)c(Cl)c1,Stable,,,> 70 µL/min/mg,> 104 µL/min/mg,1.2 ×10⁻⁶ cm/s,380 nM,520 nM,1.3,Stability [14]: Unstable; Stability [15]: Stable
CCOC(=O)c1cnc(N2CC(NC(=O)NS(=O)(=O)c3ccccc3)C2)c(Cl)c1,Stable,Stable,Stable,,,3.9 ×10⁻⁶ cm/s,380 nM,430 nM,0.8,Stability [14]: Stable; Stability [15]: Stable; half-life [16]: 2.1 h; half-life [17]: 0.17 h; bioavailability [18]: 20%; clearance [19]: 29 mL/min/kg; Stability (Plasma): Unstable; fraction unbound [20]: < 0.015

# More lines, in order of falling IC50 (P2Y purinoceptor 12 [7]), values ahead:
Stability [1],Stability (Liver microsomes [2]),Stability (Liver microsomes [3]),Intrinsic clearance (CLint) (Liver microsomes [4]),Intrinsic clearance (Liver microsomes [5]),Papp A→B at up to 10 µM [6],IC50 (P2Y purinoceptor 12 [7]),IC50 (P2Y purinoceptor 12 [8]),logD at 48 h [12],SMILES,other results
Stable,,,> 70 µL/min/mg,> 104 µL/min/mg,2.5 ×10⁻⁶ cm/s,300 nM,300 nM,,CCOC(=O)c1cnc(N2CCN(C(=O)NS(=O)(=O)c3ccc(C)cc3)CC2)c(Cl)c1,Stability [14]: Unstable; Stability [15]: Stable; solubility kinetic at 16 h (physchem [10]): 490 µM
Stable,,,> 70 µL/min/mg,> 104 µL/min/mg,,260 nM,150 nM,,CCOC(=O)c1cnc(N2CCN(C(=O)NS(=O)(=O)c3ccccc3C)CC2)c(Cl)c1,solubility kinetic at 16 h (physchem [10]): 210 µM
Stable,Stable,Stable,> 70 µL/min/mg,> 104 µL/min/mg,0.28 ×10⁻⁶ cm/s,220 nM,180 nM,,CCOC(=O)c1cnc(N2CCN(C(=O)NS(=O)(=O)c3ccccc3)CC2)c(Cl)c1,solubility kinetic at 16 h (physchem [9]): 100 µM
Stable,Stable,Stable,> 70 µL/min/mg,> 104 µL/min/mg,0.11 ×10⁻⁶ cm/s,100 nM,90 nM,0.9,CCOC(=O)c1cnc(N2CCN(C(=O)NS(=O)(=O)c3ccc(Cl)s3)CC2)c(Cl)c1,half-life [16]: 2.4 h; half-life [17]: 0.92 h; bioavailability [18]: 15%; clearance [19]: 36 mL/min/kg; Stability (Plasma): Unstable; fraction unbound [20]: < 0.015
Stable,,,> 70 µL/min/mg,> 104 µL/min/mg,0.22 ×10⁻⁶ cm/s,90 nM,120 nM,1.3,CCOC(=O)c1cc(C#N)c(N2CCN(C(=O)NS(=O)(=O)c3ccc(C)cc3)CC2)nc1C(F)(F)F,remaining at 2922 h [13]: 52%; half-life [16]: 0.65 h; half-life [17]: 1.5 h; bioavailability [18]: 20%; clearance [19]: 89 mL/min/kg
Stable,Stable,Stable,,,0.076 ×10⁻⁶ cm/s,39 nM,79 nM,1.1,CCOC(=O)c1cc(C#N)c(N2CCN(C(=O)NS(=O)(=O)c3ccc(Cl)s3)CC2)nc1C(F)(F)F,remaining at 2922 h [13]: 10%
Stable,Stable,Stable,> 70 µL/min/mg,> 104 µL/min/mg,0.058 ×10⁻⁶ cm/s,34 nM,42 nM,1,CCOC(=O)c1cc(C#N)c(N2CCN(C(=O)NS(=O)(=O)c3ccc(Cl)s3)CC2)nc1C,solubility [11]: 90 µM
